# Reference: PMC10352257, “In vivo effects of the alpha-synuclein misfolding inhibitor minzasolmin supports clinical development in Parkinson’s disease” (NPJ Parkinson's Disease, 2023)
# Entries after “also recorded” stand apart in the source; their conditions may differ.
# What was measured:
# [1] = tested on: dopamine transporter (DAT); experiment: Immunolabeling of striatal dopamine transporter (DAT), 3-month study; assay type: in vivo, mouse; details: for DAT immunolabeling in dorsal striatum, mean: 3 months
# Excerpt: A transgenic mouse model of Parkinson’s disease overexpressing human wild-type ASYN under the murine Thy-1 promoter on a mixed C57Bl/6 background was used in the present studies (commonly referred to Line 61)[49]. The Line 61 transgenic mouse model of Parkinson’s disease develops extensive accumulation of ASYN in areas relevant to Parkinson’s disease[49]–[51], neurodegeneration (as evidenced by loss of tyrosine hydroxylase[52],[53] and dopamine transporter immunoreactivity[18] in the striatum), inflammation, and both motor and non-motor functional deficits. Multiple cohorts of mice were transferred from the University of California, San Diego to a Neuropore-funded AAALAC-accredited vivarium facility per a laboratory service agreement between Neuropore Therapies, Inc. and the laboratory of Dr. Eliezer Masliah under institutional animal care and use committee (IACUC) Protocol S02221. All in vivo testing was conducted by Neuropore personnel under Explora Biosciences animal care and use protocol (ACUP) number E15-016-2. Three-month-old male transgenic and age-matched non-transgenic littermate control mice were used and housed up to 5 per cage. Animals received free access to food and water prior to the experiment. The vivarium ambient room temperature was monitored daily and kept within a range of 68–72 degrees Fahrenheit. Animals were kept on a 12:12 diurnal light cycle, with lights on at 0600.
# Minzasolmin was dissolved in a vehicle solution consisting of 40% Captisol (CyDex Pharmaceuticals, Inc.; Kansas, USA) in sterile water and administered at a volume of 0.1 ml/20 g of body weight. Animals received a Monday–Friday daily intraperitoneal injection of vehicle, or 1 or 5 mg/kg minzasolmin for approximately 90 days. Animals received treatment up to and including a final injection 1 h prior to euthanasia. All study solutions were blind coded and experimenters were blinded to genotype and treatment group assignments for the duration of the study, ex vivo evaluations (i.e., neuropathology sample processing and imaging, videotape scoring) and through penultimate data analyses (i.e., data quality control with documented exclusions prior to unblinding; unblinding required for a priori pairwise comparisons).
# All subjects were euthanized within 1 h of the last treatment and brain and blood were collected. Tissue processing and imaging methods were conducted as described previously[17],[18],[52] and performed under a lab service agreement between UCSD and Neuropore Therapies. All samples were blind coded to genotype and treatment group throughout immune-histological processing and imaging. The right hemibrain was post-fixed in phosphate-buffered 4% paraformaldehyde (pH 7.4) at 4 °C for 48 and then serially sectioned into […] thick […] sections using a vibratome. Sections were free-floated and incubated overnight at 4 °C with primary antibodies. To confirm the specificity of primary antibodies, control experiments were performed in which sections were incubated overnight in the absence of primary antibody, pre-immune serum, or primary antibody pre-adsorbed for 48 h with 20-fold excess of the corresponding peptide. Tissue collection, processing, and imaging methods were conducted as described previously. […] Immunolabeling was evaluated as a corrected optical density across a field of view. […]
# [2] = tested on: Line 61 transgenic mice; experiment: Grip strength, Line 61 transgenic mice; assay type: in vivo, mouse; details: 1 and 5 mg/kg, re-test after treatment, two-way ANOVA with repeated measures
# Excerpt: A transgenic mouse model of Parkinson’s disease overexpressing human wild-type ASYN under the murine Thy-1 promoter on a mixed C57Bl/6 background was used in the present studies (commonly referred to Line 61)[49]. The Line 61 transgenic mouse model of Parkinson’s disease develops extensive accumulation of ASYN in areas relevant to Parkinson’s disease[49]–[51], neurodegeneration (as evidenced by loss of tyrosine hydroxylase[52],[53] and dopamine transporter immunoreactivity[18] in the striatum), inflammation, and both motor and non-motor functional deficits. […] The vivarium ambient room temperature was monitored daily and kept within a range of 68–72 degrees Fahrenheit. […]
# Nonetheless, a baseline measurement of grip strength is always included to confirm existing deficits in Line 61 transgenic mice and to inform pseudorandomized treatment group assignment (i.e., ensuring that each treatment group started with a similar distribution of grip strength performances). […] The dependent measure, peak strength (in grams of force), was determined per trial and as an average for each animal across trials. […]
compound,measurement,setting,value
CCCC[C@H](Cc1c[nH]c2ccccc12)NC(=O)c1cnc(N2CCN(C)CC2)s1 [minzasolmin],change in striatal DAT immunolabeling vs vehicle-treated ASYN transgenic controls,"[1]; 1 mg/kg, P < 0.05",statistically significant increases; also recorded: statistically significant normalizations
same,change in striatal DAT immunolabeling vs vehicle-treated ASYN transgenic controls,"[1]; 5 mg/kg, P < 0.0001",statistically significant increases; also recorded: statistically significant normalizations
same,"DAT immunolabeling in dorsal striatum, mean","[1]; Line 61 tg/1 mg/kg (first group of that name), Line 61 tg/Vehicle 211.2, Non-tg/Vehicle 292.1, adjusted P 0.0117",255.3
same,"DAT immunolabeling in dorsal striatum, mean","[1]; Line 61 tg/1 mg/kg as printed (second group of that name), Line 61 tg/Vehicle 211.2, adjusted P <0.0001",280.1
same,"dose effect on striatal DAT levels, 5 mg/kg compared to 1 mg/kg (towards a greater increase)","[1]; P = 0.0754, unpaired two tailed t test",statistical trend
same,effect of chronic treatment on grip strength of Line 61 transgenic mice,[2],no statistically significant benefits
